Laboratory results published in ChEMBL document CHEMBL1201862, “PubChem BioAssay data set” (2004).
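Cultured in 96-well plates, cells were exposed to test compound for 48 hours across five concentrations. The concentration for 50% growth inhibition is given as GI50.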 The source made the active and inactive calls. No stated cut-off is given here; in the data, active = GI50 up to about 1.1 µM and inactive = higher.

Columns and labels:
Test in all cases: NCI-60 cell line screen, 48 h
EKVX = system: EKVX
U-251 = system: U-251
SNB-19 = system: SNB-19
NCI-H522 = system: NCI-H522
RPMI-8226 = system: RPMI-8226
HOP-18 = system: HOP-18
M19-MEL = system: M19-MEL
A549 = system: A549
SNB-78 = system: SNB-78
HOP-62 = system: HOP-62
Malme-3M = system: Malme-3M
HOP-92 = system: HOP-92
UACC-62 = system: UACC-62
SK-OV-3 = system: SK-OV-3
KM12 = system: KM12
IGROV-1 = system: IGROV-1
SF-268 = system: SF-268
NCI-H23 = system: NCI-H23
HCT-15 = system: HCT-15
SF-295 = system: SF-295
A498 = system: A498
OVCAR-3 = system: OVCAR-3
MOLT-4 = system: MOLT-4
COLO 205 = system: COLO 205
NCI-H460 = system: NCI-H460
NCI-H226 = system: NCI-H226
SK-MEL-5 = system: SK-MEL-5
SF-539 = system: SF-539
SW-620 = system: SW-620
DMS-114 = system: DMS-114
HCC 2998 = system: HCC 2998
HL-60 = system: HL-60
DLD-1 = system: DLD-1
OVCAR-5 = system: OVCAR-5
SK-MEL-2 = system: SK-MEL-2
RXF 393 = system: RXF 393
UO-31 = system: UO-31
OVCAR-4 = system: OVCAR-4
SN12C = system: SN12C
MCF7 = system: MCF7
CCRF-CEM = system: CCRF-CEM
K562 = system: K562
LOX IMVI = system: LOX IMVI
HCT-116 = system: HCT-116
HT-29 = system: HT-29
SNB-75 = system: SNB-75
DMS-273 = system: DMS-273
NCI/ADR-RES = system: NCI/ADR-RES
SK-MEL-28 = system: SK-MEL-28
KM-20L2 = system: KM-20L2
UACC-257 = system: UACC-257
OVCAR-8 = system: OVCAR-8
XF498 = system: XF498
SR = system: SR
M14 = system: M14
786-0 = system: 786-0
TK-10 = system: TK-10
CAKI-1 = system: CAKI-1
LXFL 529 = system: LXFL 529
ACHN = system: ACHN

`COc1nc(O)c(N)c(NC2OC(CO)C(O)C(O)C2O)n1` (configuration not stated) was tested, and the GI50 (EKVX) was > 100 µM (inactive), the GI50 (U-251) was > 100 µM (inactive) and the GI50 (SNB-19) was > 100 µM (inactive). The GI50 (NCI-H522) was > 100 µM (inactive), the GI50 (RPMI-8226) was > 100 µM (inactive) and the GI50 (HOP-18) was > 100 µM (inactive). For the same compound, the GI50 (M19-MEL) was > 100 µM (inactive), the GI50 (A549) was > 100 µM (inactive) and the GI50 (SNB-78) was > 100 µM (inactive). The GI50 (HOP-62) was > 100 µM (inactive), the GI50 (Malme-3M) was > 100 µM (inactive) and the GI50 (HOP-92) was > 100 µM (inactive). For the same compound, the GI50 (UACC-62) was > 100 µM (inactive), the GI50 (SK-OV-3) was > 100 µM (inactive) and the GI50 (KM12) was > 100 µM (inactive). The GI50 (IGROV-1) was > 100 µM (inactive), the GI50 (SF-268) was > 100 µM (inactive) and the GI50 (NCI-H23) was > 100 µM (inactive). The GI50 (HCT-15) was over 100 µM, the GI50 (SF-295) was > 100 µM (inactive) and the GI50 (A498) was > 100 µM (inactive). For the same compound, the GI50 (OVCAR-3) was > 100 µM (inactive), the GI50 (MOLT-4) was > 100 µM (inactive) and the GI50 (COLO 205) was > 100 µM (inactive). For the same compound, the GI50 (NCI-H460) was > 100 µM (inactive), the GI50 (NCI-H226) was > 31.6 µM (inactive) and the GI50 (SK-MEL-5) was > 100 µM (inactive). For the same compound, the GI50 (SF-539) was > 100 µM (inactive), the GI50 (SW-620) was > 100 µM (inactive) and the GI50 (DMS-114) was > 100 µM (inactive). For the same compound, the GI50 (HCC 2998) was > 100 µM (inactive), the GI50 (HL-60) was > 82.8 µM (inactive) and the GI50 (DLD-1) was > 100 µM (inactive). For the same compound, the GI50 (OVCAR-5) was > 100 µM (inactive), the GI50 (SK-MEL-2) was > 100 µM (inactive) and the GI50 (RXF 393) was > 100 µM (inactive). The GI50 (UO-31) was > 100 µM (inactive), the GI50 (OVCAR-4) was > 100 µM (inactive) and the GI50 (SN12C) was > 100 µM (inactive). For the same compound, the GI50 (MCF7) was > 100 µM (inactive), the GI50 (CCRF-CEM) was > 57.8 µM (inactive) and the GI50 (K562) was > 90.8 µM (inactive). For the same compound, the GI50 (LOX IMVI) was > 100 µM (inactive), the GI50 (HCT-116) was > 100 µM (inactive) and the GI50 (HT-29) was > 100 µM (inactive). The GI50 (SNB-75) was > 100 µM (inactive), the GI50 (DMS-273) was > 100 µM (inactive) and the GI50 (NCI/ADR-RES) was > 100 µM (inactive). The GI50 (SK-MEL-28) was > 100 µM (inactive), the GI50 (KM-20L2) was > 100 µM (inactive) and the GI50 (UACC-257) was > 100 µM (inactive). The GI50 (OVCAR-8) was > 100 µM (inactive) and the GI50 (XF498) was > 100 µM (inactive).

`COC(=O)C1[C@@H](C(=O)OC)C(=O)O[C@H]1c1cc(OC)c(OC)c(OC)c1` (some centres not stated) was tested, and the GI50 (U-251) was > 100 µM (inactive), the GI50 (SNB-19) was > 100 µM (inactive) and the GI50 (RPMI-8226) was > 100 µM (inactive). For the same compound, the GI50 (HOP-18) was > 100 µM (inactive), the GI50 (M19-MEL) was > 100 µM (inactive) and the GI50 (A549) was > 100 µM (inactive). For the same compound, the GI50 (SNB-78) was > 100 µM (inactive), the GI50 (HOP-62) was > 100 µM (inactive) and the GI50 (Malme-3M) was > 100 µM (inactive). For the same compound, the GI50 (SR) was > 100 µM (inactive), the GI50 (HOP-92) was > 100 µM (inactive) and the GI50 (UACC-62) was > 100 µM (inactive). For the same compound, the GI50 (SK-OV-3) was > 100 µM (inactive), the GI50 (KM12) was > 100 µM (inactive) and the GI50 (IGROV-1) was > 100 µM (inactive). The GI50 (M14) was > 100 µM (inactive), the GI50 (SF-268) was > 100 µM (inactive) and the GI50 (NCI-H23) was > 100 µM (inactive). For the same compound, the GI50 (HCT-15) was over 100 µM, the GI50 (SF-295) was > 100 µM (inactive) and the GI50 (786-0) was > 100 µM (inactive). The GI50 (A498) was 48.5 µM (inactive), the GI50 (OVCAR-3) was > 100 µM (inactive) and the GI50 (TK-10) was > 100 µM (inactive). For the same compound, the GI50 (MOLT-4) was > 100 µM (inactive), the GI50 (CAKI-1) was > 100 µM (inactive) and the GI50 (COLO 205) was > 100 µM (inactive). For the same compound, the GI50 (NCI-H460) was > 100 µM (inactive), the GI50 (NCI-H226) was > 100 µM (inactive) and the GI50 (SK-MEL-5) was > 100 µM (inactive). The GI50 (SF-539) was > 100 µM (inactive), the GI50 (SW-620) was > 100 µM (inactive) and the GI50 (DMS-114) was > 100 µM (inactive). For the same compound, the GI50 (HCC 2998) was > 100 µM (inactive), the GI50 (HL-60) was > 100 µM (inactive) and the GI50 (DLD-1) was > 100 µM (inactive). For the same compound, the GI50 (OVCAR-5) was > 100 µM (inactive), the GI50 (RXF 393) was > 100 µM (inactive) and the GI50 (UO-31) was > 100 µM (inactive). The GI50 (OVCAR-4) was > 100 µM (inactive), the GI50 (SN12C) was > 100 µM (inactive) and the GI50 (CCRF-CEM) was > 100 µM (inactive). For the same compound, the GI50 (K562) was > 100 µM (inactive), the GI50 (LOX IMVI) was > 100 µM (inactive) and the GI50 (HCT-116) was > 100 µM (inactive). For the same compound, the GI50 (HT-29) was > 100 µM (inactive), the GI50 (SNB-75) was > 100 µM (inactive) and the GI50 (DMS-273) was > 100 µM (inactive). For the same compound, the GI50 (SK-MEL-28) was > 100 µM (inactive), the GI50 (KM-20L2) was > 100 µM (inactive) and the GI50 (UACC-257) was > 100 µM (inactive). For the same compound, the GI50 (OVCAR-8) was > 100 µM (inactive), the GI50 (LXFL 529) was > 100 µM (inactive) and the GI50 (ACHN) was > 100 µM (inactive).
